The values below come from publication PMC8464850, “Sulfonium Ligands of the α7 nAChR” (Molecules, 2021).

Each structure is given as a SMILES string. Structures can show the parent of a compound that is named as a salt.

The target in data set [1] is T1, α7 nAChR (Homo sapiens, UniProt P36544).
T1 construct: expressed in transfected cells; host or cells: Xenopus laevis oocytes (injected RNA)
Nature of the data set: α7 responses on co-application with the type II PAM TQS (silent agonism). In kind it is cell-based. The note with it: for α7 functional classification (silent agonist / inactive): inactive alone, active with a PAM = silent agonist. The procedure:
(§1) Compounds were co-applied at a concentration of 100 µM with 30 µM racemic TQS (Figure 3A). All compounds except S4, S5, and S8 gave large responses when co-applied with TQS, consistent with silent agonism of α7 (see Table S1 for ANOVA). Active compounds were also evaluated across a range of concentrations with the alternative PAM, PNU-120596 (Figure 3B). The curve-fit values for Imax (Table 1) should be taken only as approximation of the relative efficacies of the compounds, due to the large variability frequently observed in PNU-120596-potentiated responses, as evidenced by the large SEMs of the responses obtained with high concentrations.
(§2) Figure 3 Responses of α7 nAChR to sulfonium compounds coapplied with PAMs. (A) Potentiation of α7 responses with 30 µM racemic TQS. Shown are the average net-charge responses of seven or eight oocytes ± SEM. (B) Concentration-response studies of peak currents generated by compounds that gave positive responses with TQS, coapplied with 10 µM PNU-120596. Each point represents the average (±SEM) of at least four oocytes.
The human nAChR clones were obtained from Jon Lindstrom (University of Pennsylvania, Philadelphia, PA, USA). Mouse muscle subunit clones were obtained from Jim Boulter (Salk Institute, La Jolla, CA, USA) and Paul Gardner (Dartmouth, Hanover, NH, USA). The human resistance-to-cholinesterase 3 (RIC3) clone was obtained from Millet Treinin (Hebrew University, Jerusalem, Israel) and co-injected with α7 to improve the level and speed of α7 receptor expression without affecting the pharmacological properties of the receptors. Subsequent to linearization and purification of the plasmid DNAs, RNAs were prepared using the mMessage mMachine in vitro RNA transcription kit (Ambion, Austin, TX, USA).
(§3) Experiments were conducted using OpusXpress 6000A (Molecular Devices, Union City, CA, USA). Both the voltage and current electrodes were filled with 3 M KCl. Oocytes were voltage-clamped at −60 mV at room temperature (24 °C). The oocytes were bath-perfused with Ringer’s solution (115 mM NaCl, 2.5 mM KCl, 1.8 mM CaCl2, 10 mM HEPES, and 1 μM atropine, pH 7.2) at 2 mL/min for α7 receptors, or 4 mL/min for heteromeric nAChR. To evaluate the effects of experimental compounds, responses were compared to control ACh-evoked responses, defined as the average of two initial applications of ACh made before test applications. ACh control concentrations were 60 µM for α7 receptors; 100 µM for α4(3)β2(2) and α3β4 receptors; 30 µM for α4β2α6β2β3 and muscle-type (αβ1εδ) receptors; and 10 µM for α4(3)β2(2) and α4(2)β2(2)α5 receptors.
(§4) Solutions were applied from 96-well plates via disposable tips. Drug applications were 12 s in duration, followed by 181 s washout periods for α7 receptors, or 6 s in duration followed by 301 s washout periods for heteromeric nAChR. The responses were calculated as both peak current amplitudes and net charge, as previously described. Data were collected at 50 Hz, filtered at 20 Hz for α7 receptors or filtered at 5 Hz for heteromeric nAChR, and analyzed by Clampfit (Molecular Devices, San Jose, CA, USA) and Excel (Microsoft, Redmond, WA, USA). Data were expressed as means ± SEM from at least four oocytes for each experiment and plotted with Kaleidagraph 4.5.2 (Abelbeck Software, Reading, PA, USA). Multi-cell averages were calculated for comparisons of complex responses. Averages of the normalized data were calculated for each of the 10,322 points in each of the 206.44 s traces (acquired at 50 Hz), as well as the standard errors for those averages.

For data set [2], the target named is T1, α7 nAChR. Nature of the data set: α7 concentration-response on co-application with 10 µM PNU-120596. In kind it is cell-based. Conditions: peak currents, co-applied with 10 µM PNU-120596, Hill fit; for IMax (PNU Activation): approximation only. Here is the method: as §1, §2, §3, §4
Data set [3] in a line: pKa by titration. The note with it: phenolic hydroxyl, data not shown for S9, S10, read-out: pKa. In kind it is physicochemical. The text has this:
One of the questions that emerges from the data is why aromatic sulfoniums as structurally similar as S5, S9, and S10 provide different responses when coapplied with TQS. Indeed, compounds S5 and S9 virtually overlap in their best docked poses (Supplementary Figure S1), but the α7 response of S9 and TQS was dramatically greater than that of S5 and TQS (p < 0.001, Table S1). The formation of cation–pi interactions is a key feature of the binding of nicotinic orthosteric ligands, and the electronic distribution of the cation can be compared qualitatively in a series of compounds using molecular electrostatic potentials (MEPs). Analysis of the MEPs shown in Figure 9 reveal that the substituents on the benzene ring can modulate the intensity of the positive charge on the sulfonium center. Compound S5, for instance, has two hydroxyl groups which are strongly electron donating, and in comparison to compound S9, which has only one hydroxyl group, the intensity of the positive charge is […]. Another factor may be that a lone pair on the ortho hydroxyl substituent is donating electron density through space to the neighboring sulfonium, redistributing its positive charge. Compound S10 also has an ortho hydroxyl group, but unlike compound S5, compound S10 also has a nitro group, which is a strong electron-withdrawing group that may offset the electron-donating impact of the ortho hydroxyl group. Inspection of the MEP surface shown in Figure 9 does indicate that, relative to S5, the S10 sulfonium bears greater positive electrostatic potential. Given that compounds such as para-nitrophenol are acidic, with a pKa of ~7 for the phenolic hydroxyl, we also considered whether the deprotonated forms of S5, S9, and S10 might be accessible at the pH of our experiments.
Thus, all three compounds have varying proportions of the phenolic OH in the phenoxide form at the pH of Ringers solution used in the experiments. […] Future work on analogs of these compounds may be focused on substituents that are non-ionizable, and thus preserve a positive molecular charge derived from the sulfonium center.

T1 sequence (P36544 23-502): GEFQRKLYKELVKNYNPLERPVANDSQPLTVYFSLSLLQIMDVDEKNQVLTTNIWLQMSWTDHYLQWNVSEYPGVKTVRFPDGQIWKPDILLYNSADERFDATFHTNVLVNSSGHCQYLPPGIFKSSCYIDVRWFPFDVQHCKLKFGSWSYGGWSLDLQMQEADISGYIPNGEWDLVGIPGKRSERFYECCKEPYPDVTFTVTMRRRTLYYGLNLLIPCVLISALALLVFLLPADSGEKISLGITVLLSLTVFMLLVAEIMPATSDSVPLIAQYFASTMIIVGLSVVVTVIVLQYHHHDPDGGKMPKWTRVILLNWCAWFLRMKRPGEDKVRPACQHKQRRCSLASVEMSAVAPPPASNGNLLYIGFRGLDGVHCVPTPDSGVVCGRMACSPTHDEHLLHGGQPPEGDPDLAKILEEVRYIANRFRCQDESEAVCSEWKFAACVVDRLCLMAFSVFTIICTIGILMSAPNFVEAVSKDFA

In the case of `C[S+](C)c1cc([N+](=O)[O-])ccc1O.[Br-]` [Compound S10, (2-hydroxy-5-nitrophenyl)dimethylsulfonium bromide], the “α7 functional classification (silent agonist / inactive)” value in data set [1] is reported as “silent agonist activity”. In addition, in data set [2], the “IMax (PNU Activation)” value is given as 4.6 ± 0.1. Besides, the EC50 (as a rule, the concentration needed to bring the measured effect to its halfway point) in data set [2] (read-out: EC50 (PNU Activation)) is 45.5 ± 50.6 µM. Besides, the pKa (commonly the pH at which an ionisable group is half protonated) in data set [3] is roughly 5.

Take `C[S+](C)c1ccc(O)cc1` [Compound S9, (4-hydroxyphenyl)dimethylsulfonium methyl sulfate]: in data set [1] (100 µM with 30 µM TQS, Figure 3A), the “relative activity as α7 silent agonist / desensitizer (rank order)” value is listed as “most desensitizing”. Moreover, the “α7 functional classification (silent agonist / inactive)” value in data set [1] is “silent agonist activity”. In data set [2], the “IMax (PNU Activation)” value is on record as 3.98 ± 0.14. The pKa in data set [3] is roughly 7.3.

Consider `C[S+](C)C.[I-]` [Compound S1, trimethylsulfonium iodide], for which, in data set [1] (100 µM compound with 30 µM racemic TQS, net charge), the “response when co-applied with TQS” value is reported as “produced potentiated α7 currents”. In data set [2], the “IMax (PNU Activation)” value stood at 9.1 ± 0.05.
